# Reference: patent EP4122467A1, “THX-B FOR TREATING AND PREVENTING CANCER AND METASTASIS” (Fundación del Sector Público Estatal Centro Nacional de …, priority 2021, dated 2023)
# “Also recorded” adds a separate entry of the source.
# Experiments:
# mouse melanoma cells = test: Spontaneous metastasis model, mouse melanoma cells injected subcutaneously (Figure 1); type: in vivo, c57/BL6 mice
# Protocol: • Figure 1. NGFR inhibition by THX-B reduces melanoma spontaneous metastasis. A-B) 200.000 lymph node metastatic mouse melanoma cells were subcutaneously in c57/BL6 mice. Animals were treated intra-peritoneally with THX-B (4 mg/Kg twice a week), starting on day 7 post-injection of tumor cells. Tumor volume (A) was measured twice a week using a caliper. LN and lung metastatic burden (B) were measured using the IVIS image system and represented as fold over vehicle treated mice. Error bars represent s.e.m. of 2 experiments (n = 8 mice, vehicle group and n = 10, THX-B group). C-D) Similarly, tumor growth (C) was measured in mice subcutaneously injected with lung metastatic mouse melanoma cells (200.000) and treated with vehicle or THX-B in the same conditions as A) (n=4-5mice per condition). D) Percentage of lung lobules with melanoma metastasis in animals with flank tumors originated by injecting B16F10 cells. p values were calculated by two-tailed Student's t test. • Figure 2. NGFR inhibition by THX-B reduces melanoma spontaneous metastasis in immunodeficient models. Lung metastatic human melanoma cells (500.000) were injected subcutaneously into the flank of nude mice. […] A) Tumor growth was measured with a caliper twice a week. B) Quantification of the percentage of lung lobules with melanoma metastasis was analyzed measuring Luc expression of tumor loci with the IVIS system. p values were calculated by two-tailed Student's t test. • Figure 3. […] A) Tumor volume was measured using a caliper. […] Distal metastases were analyzed measuring luciferase expression in the lungs using IVIS system. Error bars represent s.e.m of 3 experiment (n = 12 mice, vehicle group, n = 12, antiPD-L1 group; n=8 antiPDL1 and THX-B group). p values were calculated by two-tailed Student's t test. • Figure 4. […] Quantification of LYVE+ area was performed with ImageJ software and was normalized to total LN area in each section. Error bars represent s.e.m of 1 experiment (n = 6 LNs, 3 whole sections analyzed per nodule). p values were calculated by two-tailed Student's t test. • Figure 6. […]
# proNGF/p75^NTR axis [1] = test: Cystometry in diabetic voiding dysfunction model; type: in vivo, C57BL/6 female mice; settings: compared with Dm
# Protocol: (§1) Animal housing and treatments All experiments received the ethical approval from the Lady Davis Institute Ethics Board (No. 7859), Montreal, Canada. Housing and handling conformed with the Canadian Council for Animal Care (CCAC). One hundred and forty four 9-week-old C57BL/6 female mice were kept on a 12 h light/dark cycle with free access to food (standard Purina chow, Teklad Global, Wl, USA) and water. Diabetes was induced by i.p. injection of streptozotocin (60 mg/kg in citrate buffer, 10 mmol/l, pH 4.5 on 5 consecutive days) after 4-5 h fasting. Fasting serum glucose (FSG) was checked after 5-7 days using a glucometer (Contour next EZ, Bayer, ON, Canada) from the tail. FSG above 14 mmol/l was considered diabetic. Mice were divided into four groups without pre-considering their weight changes or glucose levels (for diabetic groups): control (42 mice); untreated diabetic (hereafter referred to as Dm; 42 mice); anti-proNGF mAb-treated diabetic mice (30 mice); and small molecule p75^NTR antagonist (THX-B)-treated diabetic mice (30 mice). […] This inhibitor antagonises ligand-dependent p75^NTR functions and, different from other anti-NGF mAbs, it is free of the off-target side effects resulting from inhibiting TrkA. We have observed that the molecule is detectable in systemic circulation for 2 weeks. The THX-B small molecule ((1,3-diisopropyl-1-[2-(1,3-dimethyl-2,6-dioxo-1,2,3,6-tetrahydro-purin-7-yl)-acetyl]-urea); molecular mass […]) is a synthetic chemical with an estimated systemic circulation half-life in vivo of 6-8 h.
# (§2) Without blinding, i.p. injections of the drug molecules or the vehicle (PBS) were given weekly for four weeks, starting after 2 weeks of diabetes confirmation. A single starting proNGF mAb i.p. injection of 100 µg/mouse in 150 µl PBS was followed by 60 µg/mouse in 100µl PBS for the following three injections. THX-B was injected i.p. at a weekly dose of 50 µg/mouse in 125 µl PBS. Experimental time points (to carry out cystometry, contractility, protein extraction and histology) were baseline (two weeks after diabetes diagnosis included control and Dm groups only), week 2 after treatment (following 2 injection cycles) and week 4 after treatment (following 4 injection cycles). Body weight was measured weekly and FSG fortnightly for all groups. Six mice from each group were kept for another 2 weeks after the end of the study duration to observe the washout/prolonged effect of the molecules.
# B16F1-R2 cells = test: Lymph node lymphangiogenesis, LYVE-1 staining of inguinal LNs of animals with flank tumors (Figure 5); type: in vivo; settings: 2.5 mg/Kg THX-B intra-peritoneally twice a week from day 7; sacrificed at 21 days
# Protocol: (§3) • Figure 1. NGFR inhibition by THX-B reduces melanoma spontaneous metastasis. A-B) 200.000 lymph node metastatic mouse melanoma cells were subcutaneously in c57/BL6 mice. Animals were treated intra-peritoneally with THX-B (4 mg/Kg twice a week), starting on day 7 post-injection of tumor cells. Tumor volume (A) was measured twice a week using a caliper. LN and lung metastatic burden (B) were measured using the IVIS image system and represented as fold over vehicle treated mice. Error bars represent s.e.m. of 2 experiments (n = 8 mice, vehicle group and n = 10, THX-B group). C-D) Similarly, tumor growth (C) was measured in mice subcutaneously injected with lung metastatic mouse melanoma cells (200.000) and treated with vehicle or THX-B in the same conditions as A) (n=4-5mice per condition). D) Percentage of lung lobules with melanoma metastasis in animals with flank tumors originated by injecting B16F10 cells. p values were calculated by two-tailed Student's t test. • Figure 2. […] A) Tumor growth was measured with a caliper twice a week. B) Quantification of the percentage of lung lobules with melanoma metastasis was analyzed measuring Luc expression of tumor loci with the IVIS system. p values were calculated by two-tailed Student's t test. • Figure 3. […] A) Tumor volume was measured using a caliper. […] Distal metastases were analyzed measuring luciferase expression in the lungs using IVIS system. […]
# proNGF/NGF = test: Molecular changes in diabetic voiding dysfunction model: proNGF/NGF; type: in vivo, C57BL/6 female mice; settings: compared with Dm
# Protocol: (§4) Animal housing and treatments All experiments received the ethical approval from the Lady Davis Institute Ethics Board (No. 7859), Montreal, Canada. Housing and handling conformed with the Canadian Council for Animal Care (CCAC). One hundred and forty four 9-week-old C57BL/6 female mice were kept on a 12 h light/dark cycle with free access to food (standard Purina chow, Teklad Global, Wl, USA) and water. Diabetes was induced by i.p. injection of streptozotocin (60 mg/kg in citrate buffer, 10 mmol/l, pH 4.5 on 5 consecutive days) after 4-5 h fasting. Fasting serum glucose (FSG) was checked after 5-7 days using a glucometer (Contour next EZ, Bayer, ON, Canada) from the tail. FSG above 14 mmol/l was considered diabetic. Mice were divided into four groups without pre-considering their weight changes or glucose levels (for diabetic groups): control (42 mice); untreated diabetic (hereafter referred to as Dm; 42 mice); anti-proNGF mAb-treated diabetic mice (30 mice); and small molecule p75^NTR antagonist (THX-B)-treated diabetic mice (30 mice). […]
# (§5) Without blinding, i.p. injections of the drug molecules or the vehicle (PBS) were given weekly for four weeks, starting after 2 weeks of diabetes confirmation. […] Body weight was measured weekly and FSG fortnightly for all groups. […]
# [2] = Persistence in systemic circulation in vivo; settings: read-out: estimated systemic circulation half-life in vivo
# Text: In both the proNGF mAb and the THX-B treatments, the prolonged anatomical physiological effects on the bladder are likely to be due to a prolonged therapeutic effect rather than to the drugs remaining in circulation at therapeutic levels after a 3 week period, given that we have observed that anti-proNGF mAb is detectable in systemic circulation only for 2 weeks in previous studies.
# as §4, with “diabetic.” for “diabetic. Mice were divided into four groups without pre-considering their weight changes or glucose levels (for diabetic groups): control (42 mice); untreated diabetic (hereafter referred to as Dm; 42 mice); anti-proNGF mAb-treated diabetic mice (30 mice); and small molecule p75^NTR antagonist (THX-B)-treated diabetic mice (30 mice).”
# proNGF/p75^NTR axis [3] = test: Voiding spot assay (VSA) in diabetic mice; type: in vivo, C57BL/6 female mice
# Protocol: Voiding spot assay: For the voiding spot assay (VSA), mice were placed individually with access to food without water for 2 h. The cage was fitted with a chromatography paper, grade 3 mm CHR (Whatman, GE Healthcare, UK) covered by a fine metallic mesh (2-3 mm pore size). The urine spot pattern was assessed by imaging the chromatography paper with ultraviolet light using SynGene Bioimaging system (USA) connected to GeneSnap software (Version 7.02, USA) and analysed by ImageJ software (Version: 2.0.0-rc-66/1.52n, NIH, USA) using a calibration curve and Void Whizzard free software plugin for FIJI (distribution of ImageJ, Version: 2.0.0-rc-66/1.52n, NIH, USA). Mice were acquainted to the procedure once to get accustomed, then the experiment was done once to obtain the voiding data.
# as §1, §2
# proNGF/p75^NTR axis [4] = test: Fasting serum glucose and bladder weight/morphology after drug washout (Figure 7); type: in vivo, C57BL/6 female mice; settings: after the 3 week washout period; compared with Dm
# Protocol: as §3
# TNF-a = test: Molecular changes in diabetic voiding dysfunction model: TNF-a; type: in vivo, C57BL/6 female mice; settings: compared with Dm
# Protocol: as §4, §5
# proNGF/p75^NTR axis [5] = test: Bladder weight and morphology in diabetic voiding dysfunction model; type: in vivo, C57BL/6 female mice
# Protocol: as §1, §2
# [6] = Drug levels and tissue distribution after intraperitoneal and oral administration; type: in vivo, mice
# Protocol: In lymph nodes compound was detected at 8 hours with a concentration of 9 ng/ml.
# [7] = test system: Lung metastatic human melanoma cells; test: Spontaneous metastasis model in immunodeficient mice, human melanoma cells injected subcutaneously (Figure 2); type: in vivo, nude mice; settings: immunodeficient models; THX-B 4 mg/Kg intraperitoneal twice a week from day 7; vs vehicle
# Protocol: as §3
# proNGF/p75^NTR axis [8] = test: Bladder contractility in diabetic voiding dysfunction model; type: in vivo, C57BL/6 female mice; settings: compared with Dm, week as printed in the cell
# Protocol: as §1
# Without blinding, i.p. injections of the drug molecules or the vehicle (PBS) were given weekly for four weeks, starting after 2 weeks of diabetes confirmation. A single starting proNGF mAb i.p. injection of 100 µg/mouse in 150 µl PBS was followed by 60 µg/mouse in 100µl PBS for the following three injections. THX-B was injected i.p. at a weekly dose of 50 µg/mouse in 125 µl PBS. […] Body weight was measured weekly and FSG fortnightly for all groups. […]
# [9] = THX-B 4 mg/Kg intra-peritoneally twice a week from day 7, vs vehicle
# [10] = compared with Dm, week as printed in the cell
smiles,measurement,setting,value
"CC(C)NC(=O)N(C(=O)Cn1cnc2c1c(=O)n(C)c(=O)n2C)C(C)C [THX-B, 1,3-diisopropyl-1-[2-(1,3-dimethyl-2,6-dioxo-1,2,3,6-tetrahydro-purin-7-yl)-acetyl]-urea]",melanoma spontaneous metastasis,"mouse melanoma cells; Figure 1 title, THX-B 4 mg/Kg intra-peritoneally twice a week",reduces
same,distal (lung) spontaneous metastasis,mouse melanoma cells; [9],impaired
same,local (lymph node) spontaneous metastasis,mouse melanoma cells; [9],impaired
same,Cystometry: Spontaneous activity,proNGF/p75^NTR axis [1],⇔
same,Cystometry: Bladder capacity,proNGF/p75^NTR axis [1]; week as printed in the cell,↓ (week 4)
same,Cystometry: Bladder compliance,proNGF/p75^NTR axis [1]; week as printed in the cell,⇔
same,Cystometry: ICI,"proNGF/p75^NTR axis [1]; inter-contraction interval, week as printed in the cell",↓ (week 4)
same,lymph node lymphangiogenesis (Lyve-1+ staining in inguinal lymph nodes),B16F1-R2 cells,reduces; also recorded: decreased
same,Molecular changes: proNGF/NGF,proNGF/NGF,↓
same,half-life,[2],6 to 8 h
same,lower total voided volume compared with Dm,proNGF/p75^NTR axis [3]; after 2 weeks of treatment,50%
same,total voided volume,"proNGF/p75^NTR axis [3]; after 2 weeks of treatment, 2 h VSA, Dm 802.5±123µl",372 ± 73 µL
same,VSA: Volume per spot,proNGF/p75^NTR axis [3]; compared with Dm,⇔
same,"effects on voiding frequency, total voided volume and mean volume per micturition","proNGF/p75^NTR axis [3]; compared with Dm, except total voided volume for THX-B at 2 weeks",minimal effects
same,VSA: Number of spots,proNGF/p75^NTR axis [3]; [10],↓ (week 2)
same,VSA: Total volume,proNGF/p75^NTR axis [3]; [10],↓ (week 2)
same,Bladder weight,proNGF/p75^NTR axis [4],persistent absence of bladder hypertrophy; also recorded: maintained a significant difference
same,Molecular changes: TNF-a,TNF-a,↓↓
same,Morphology: Collagen content,proNGF/p75^NTR axis [5]; compared with Dm,↓
same,Morphology: Detrusor,proNGF/p75^NTR axis [5]; compared with Dm,↓
same,Morphology: Mucosa,proNGF/p75^NTR axis [5]; compared with Dm,↓
same,Morphology: Overall thickness,proNGF/p75^NTR axis [5]; compared with Dm,↓
same,Bladder weight,"proNGF/p75^NTR axis [5]; compared with Dm, week of treatment as printed in the cell","↓ (week 2,4)"
same,morphology of the bladder,"proNGF/p75^NTR axis [5]; following THX-B treatment, in spite of continuous hyperglycemia",improved
same,organ distribution: lymph nodes,"[6]; females, 20 hours after injection 4mg/Kg",can be detected
same,detection levels,"[6]; intraperitoneal injection 4mg/Kg, males and female mice, said to suggest a short half-life",dropped 1 hour after injection
same,concentration at 8 h,"[6]; mouse, lymph nodes, oral dose 50mg/Kg, 8 hours",9 ng/mL
same,concentration at 24 h,"[6]; mouse, tissues except lymph nodes, oral dose 50mg/Kg, 24h, read-out: tissue distribution: concentration in all the tissues except the lymph nodes",12 to 20 ng/mL
same,half-life,"[6]; oral gavage 10mg/Kg, compared with intraperitoneal injection",similar
same,half-life,[6]; oral gavage 50mg/Kg,sustained over time
same,lung spontaneous metastasis,[7],reduce
same,Contractility: EFS,proNGF/p75^NTR axis [8]; Electric field stimulation,"↑ (week 2,4)"
same,Contractility: Carbachol,proNGF/p75^NTR axis [8],"↑ (week 2,4)"
same,Contractility: KCI,proNGF/p75^NTR axis [8],"↑ (week 2,4)"
